Measured values reported in patent publication US7803801B2, “Aminopyridine compounds having Syk inhibitory activity” (Japan Tobacco, Inc., priority 2005, dated 2010).
Structures can show the parent of a compound that is named as a salt.

How the values were obtained:
[1] = target: GST-Syk Full Protein (human) (Homo sapiens, UniProt P43405); assay: Syk kinase inhibition test (HTRF method); assay type: biochemical; details: Tables 1-x, compounds A; read-out: sykHTRF ave IC50
Outline: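 HTRF read-out: after EDTA termination and 1 h with XL665-streptavidin and Eu-anti-phosphotyrosine, the 665/620 nm ratio was measured. The reaction ran 30 min at 20–25 °C with final 6.4 nM human GST-Syk, 250 nM biotinylated peptide, 100 μM ATP, pH 7.0 HEPES buffer, 2% DMSO.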

[2] = test system: cultured human mast cells; assay: Degranulation inhibition test using cultured human mast cells (IgE cross-linking, β-Hexosaminidase release); assay type: cell-based; details: Mast cell; Tables 1-x, compounds A; cultured human mast cells; read-out: human degranulation ave. IC50
Outline: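 Degranulation was triggered by anti-hIgE (10 μg/mL final, 30 min, 37 °C) after a 10-min compound pretreatment (DMSO 0.1%) of cord-blood CD34+-derived mast cells primed 5 days with IL-4 and IgE. β-Hexosaminidase in supernatant was measured with p-nitrophenyl-GlcNAc substrate (A405), expressed against water-lysed total; IC50 (M).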

Compound	IC50 [1]	IC50 [2]
O=C(O)CC1CCN(c2ncc(-c3cccc(Nc4ccccn4)n3)s2)CC1 [Compound A-573, (1-{5-[6-(pyridin-2-ylamino)pyridin-2-yl]thiazol-2-yl}piperidin-4-yl)acetic acid dihydrochloride]	< 0.1 µM	> 1 µM
Cc1ccnc(Nc2cccc(-c3cnc(N(C)Cc4ccc(C(=O)O)cc4)s3)n2)c1 [Compound A-574, 4-[(N-methyl-N-{5-[6-(4-methylpyridin-2-ylamino)pyridin-2-yl]thiazol-2-yl}amino)methyl]benzoic acid dihydrochloride]	< 0.1 µM	0.1 to 1 µM
Cc1ccnc(Nc2cccc(-c3cnc(N4CC[C@@H](OCC(=O)O)C4)s3)n2)c1 [Compound A-575, ((R)-1-{5-[6-(4-methylpyridin-2-ylamino)pyridin-2-yl]thiazol-2-yl}pyrrolidin-3-yloxy)acetic acid dihydrochloride]	< 0.1 µM	> 1 µM
Cc1ccnc(Nc2cccc(-c3cnc(N4CCC(C(=O)O)C4)s3)n2)c1 (stereo not drawn) [Compound A-576, 1-{5-[6-(4-methylpyridin-2-ylamino)pyridin-2-yl]thiazol-2-yl}pyrrolidine-3-carboxylic acid dihydrochloride]	< 0.1 µM	> 1 µM
OCCc1ccnc(Nc2cccc(-c3cnc(N4CC[C@@H](O)C4)s3)n2)c1 [Compound A-577, (R)-1-(5-{6-[4-(2-hydroxyethyl)pyridin-2-ylamino]pyridin-2-yl}thiazol-2-yl)pyrrolidin-3-ol dihydrochloride]	< 0.1 µM	0.1 to 1 µM
Cc1ccnc(Nc2cccc(-c3cnc(N(C)[C@H]4CN[C@H](C(=O)O)C4)s3)n2)c1 [Compound A-579, (2S,4R)-4-(N-methyl-N-{5-[6-(4-methylpyridin-2-ylamino)pyridin-2-yl]thiazol-2-yl}amino)pyrrolidine-2-carboxylic acid]	< 0.1 µM	> 1 µM
Cc1ccnc(Nc2cccc(-c3cnc(N(C)CC(=O)N(C)CC(=O)O)s3)n2)c1 [Compound A-580, {N-methyl-N-[2-(N′-methyl-N′-{5-[6-(4-methylpyridin-2-ylamino)pyridin-2-yl]thiazol-2-yl}amino)acetyl]amino}acetic acid dihydrochloride]	< 0.1 µM	> 1 µM
Cc1ccnc(Nc2cccc(-c3cnc(N4CCc5c(cccc5C(=O)O)C4)s3)n2)c1 [Compound A-582, 2-{5-[6-(4-methylpyridin-2-ylamino)pyridin-2-yl]thiazol-2-yl}-1,2,3,4-tetrahydroisoquinoline-5-carboxylic acid]	< 0.1 µM	> 1 µM
Cc1ccnc(Nc2cccc(-c3cnc(N(C)Cc4cccc(C(=O)O)c4)s3)n2)c1 [Compound A-586, 3-[(N-methyl-N-{5-[6-(4-methylpyridin-2-ylamino)pyridin-2-yl]thiazol-2-yl}amino)methyl]benzoic acid dihydrochloride]	< 0.1 µM	> 1 µM
Cc1ccnc(Nc2cccc(-c3cnc(N(C)Cc4ccc(CC(=O)O)cc4)s3)n2)c1 [Compound A-587, {4-[(N-methyl-N-{5-[6-(4-methylpyridin-2-ylamino)pyridin-2-yl]thiazol-2-yl}amino)methyl]phenyl}acetic acid dihydrochloride]	< 0.1 µM	0.1 to 1 µM
Cc1ccnc(Nc2cccc(-c3cnc(N4CCC(CC(=O)O)C4)s3)n2)c1 (stereo not drawn) [Compound A-588, (1-{5-[6-(4-methylpyridin-2-ylamino)pyridin-2-yl]thiazol-2-yl}pyrrolidin-3-yl)acetic acid]	< 0.1 µM	> 1 µM
Cc1ccnc(Nc2cccc(-c3cnc(N4CCN(CC(=O)O)CC4)s3)n2)c1 [Compound A-589, (4-{5-[6-(4-methylpyridin-2-ylamino)pyridin-2-yl]thiazol-2-yl}piperazin-1-yl)acetic acid dihydrochloride]	< 0.1 µM	> 1 µM
Cc1ccnc(Nc2cccc(-c3cnc(N(C)[C@H]4CC[C@@H](C(=O)O)CC4)s3)n2)c1 [Compound A-591, cis-4-(N-methyl-N-{5-[6-(4-methylpyridin-2-ylamino)pyridin-2-yl]thiazol-2-yl}amino)cyclohexanecarboxylic acid]	< 0.1 µM	0.1 to 1 µM
Cc1ccnc(Nc2cccc(-c3cnc(N(C)[C@H]4CC[C@H](C(=O)O)CC4)s3)n2)c1 [Compound A-592, trans-4-(N-methyl-N-{5-[6-(4-methylpyridin-2-ylamino)pyridin-2-yl]thiazol-2-yl}amino)cyclohexanecarboxylic acid]	< 0.1 µM	0.1 to 1 µM
Cc1ccnc(Nc2cccc(-c3cnc(N(C)CCc4ccc(C(=O)O)cc4)s3)n2)c1 [Compound A-593, 4-[2-(N-methyl-N-{5-[6-(4-methylpyridin-2-ylamino)pyridin-2-yl]thiazol-2-yl}amino)ethyl]benzoic acid dihydrochloride]	< 0.1 µM	0.1 to 1 µM
Cc1ccnc(Nc2cccc(-c3cnc(N4CCC(OCC(=O)O)CC4)s3)n2)c1 [Compound A-594, (1-{5-[6-(4-methylpyridin-2-ylamino)pyridin-2-yl]thiazol-2-yl}piperidin-4-yloxy)acetic acid dihydrochloride]	< 0.1 µM	> 1 µM
Cc1ccnc(Nc2cccc(-c3cnc(C4CCC(CC(=O)O)CC4)s3)n2)c1 (stereo not drawn) [Compound A-595, (4-{5-[6-(4-methylpyridin-2-ylamino)pyridin-2-yl]thiazol-2-yl}cyclohexyl)acetic acid hydrochloride]	< 0.1 µM	0.1 to 1 µM
CN(Cc1ccc(C(=O)O)cc1)c1ncc(-c2cccc(Nc3cc(C4(C)OCCO4)ccn3)n2)s1 [Compound A-596, 4-{[N-methyl-N-(5-{6-[4-(2-methyl-[1,3]dioxolan-2-yl)pyridin-2-ylamino]pyridin-2-yl}thiazol-2-yl)amino]methyl}benzoic acid]	< 0.1 µM	0.1 to 1 µM
Cc1ccnc(Nc2cccc(-c3cnc(N(CC(=O)N(C)C)Cc4ccc(C(=O)O)cc4)s3)n2)c1 [Compound A-597, 4-[(N-dimethylcarbamoylmethyl-N-{5-[6-(4-methylpyridin-2-ylamino)pyridin-2-yl]thiazol-2-yl}amino)methyl]benzoic acid dihydrochloride]	< 0.1 µM	> 1 µM
Cc1ccnc(Nc2cccc(-c3cnc(N(CC(N)=O)[C@H]4CC[C@@H](C(=O)O)CC4)s3)n2)c1 [Compound A-598, cis-4-(N-carbamoylmethyl-N-{5-[6-(4-methylpyridin-2-ylamino)pyridin-2-yl]thiazol-2-yl}amino)cyclohexanecarboxylic acid]	< 0.1 µM	> 1 µM
Cc1ccnc(Nc2cccc(-c3cnc(N(CC(N)=O)C[C@H]4CC[C@H](C(=O)O)CC4)s3)n2)c1 [Compound A-599, trans-4-[(N-carbamoylmethyl-N-{5-[6-(4-methylpyridin-2-ylamino)pyridin-2-yl]thiazol-2-yl}amino)methyl]cyclohexanecarboxylic acid]	< 0.1 µM	> 1 µM
Cc1ccnc(Nc2cccc(-c3cnc(N(CC(N)=O)[C@H]4CC[C@H](C(=O)O)CC4)s3)n2)c1 [Compound A-600]	0.1 to 1 µM	> 1 µM
Cc1ccnc(Nc2cccc(-c3cnc(N(CC(=O)N(C)C)C[C@H]4CC[C@H](C(=O)O)CC4)s3)n2)c1 [Compound A-601]	0.1 to 1 µM	> 1 µM
Cc1ccnc(Nc2cccc(-c3cnc(N(CC(=O)N(C)C)[C@H]4CC[C@H](C(=O)O)CC4)s3)n2)c1 [Compound A-602]	0.1 to 1 µM	> 1 µM
Cc1ccnc(Nc2cccc(-c3cnc(N(C)Cc4ccc(C(=O)O)s4)s3)n2)c1 [Compound A-603, 5-[(N-methyl-N-{5-[6-(4-methylpyridin-2-ylamino)pyridin-2-yl]thiazol-2-yl}amino)methyl]thiophene-2-carboxylic acid]	< 0.1 µM	> 1 µM
Cc1ccnc(Nc2cccc(-c3cnc(N(C)Cc4ccc(C(=O)O)cc4Cl)s3)n2)c1 [Compound A-604, 3-chloro-4-[(N-methyl-N-{5-[6-(4-methylpyridin-2-ylamino)pyridin-2-yl]thiazol-2-yl}amino)methyl]benzoic acid dihydrochloride]	< 0.1 µM	0.1 to 1 µM
Cc1ccnc(Nc2cccc(-c3cnc(COc4ccc(C(=O)O)cc4)s3)n2)c1 [Compound A-605, 4-{5-[6-(4-methylpyridin-2-ylamino)pyridin-2-yl]thiazol-2-ylmethoxy}benzoic acid]	< 0.1 µM	> 1 µM
COc1cc(C(=O)O)ccc1CN(C)c1ncc(-c2cccc(Nc3cc(C)ccn3)n2)s1 [Compound A-606, 3-methoxy-4-[(N-methyl-N-{5-[6-(4-methylpyridin-2-ylamino)pyridin-2-yl]thiazol-2-yl}amino)methyl]benzoic acid dihydrochloride]	< 0.1 µM	0.1 to 1 µM
Cc1ccnc(Nc2cccc(-c3cnc(N4CCc5cc(C(=O)O)ccc5C4)s3)n2)c1 [Compound A-607, 2-{5-[6-(4-methylpyridin-2-ylamino)pyridin-2-yl]thiazol-2-yl}-1,2,3,4-tetrahydroisoquinoline-6-carboxylic acid]	< 0.1 µM	0.1 to 1 µM
Cc1ccnc(Nc2cccc(-c3cnc(N(C)Cc4nc(C(=O)O)cs4)s3)n2)c1 [Compound A-609, 2-[(N-methyl-N-{5-[6-(4-methylpyridin-2-ylamino)pyridin-2-yl]thiazol-2-yl}amino)methyl]thiazole-4-carboxylic acid]	< 0.1 µM	> 1 µM
